Assay results from US9604926B2 (THE UNIVERSITY OF MISSISSIPPI, priority 2007, dated 2017).
Entries after “also recorded” stand apart in the source; their conditions may differ.

Tests used:
[1] = tested on: Swiss Webster mice; assay: Expression of cocaine-induced sensitization; assay type: in vivo, mouse; conditions: compound on Day 15 before cocaine 10 mg/kg i.p.
Method: Male, Swiss Webster mice were acclimated as detailed above. For five consecutive days (Days 1-5), the mice were pretreated (i.p) with saline, then challenged 15 min later with cocaine (10 mg/kg, i.p.). The total locomotor activity (ambulatory, fine and rearing movements) of the mice was recorded for the next 30 min. A 10 day drug free period followed and on Day 15, the mice were administered saline (i.p.) or compound (0.1-20 mg/kg), followed 15 min later with cocaine (10 mg/kg, i.p.). Locomotor activity was then recorded for the next 30 min.

[2] = target: opioid receptors; assay: Non-σ competition binding, opioid receptors ([3H]bremazocine); conditions: rat brain homogenates
Method: (§1) Compounds were tested at various non-σ target sites to evaluate selectivity because cocaine interacts with these sites (dopamine, serotonin and norepinephrine transporters) or historic “sigma” ligands interact with them (opioid, NMDA, dopamine D2, 5-HT2 receptors). The compounds were tested in competition binding assays using rat brain homogenates as previously published. […] The results were reported as Ki in nM.

[3] = tested on: Swiss Webster mice; assay: Methamphetamine-induced locomotor activity; assay type: in vivo, mouse; conditions: i.p. pretreatment 15 min before methamphetamine 1 mg/kg i.p.
Method: (§2) Male, Swiss Webster mice were acclimated as detailed above. […] The total locomotor activity (ambulatory, fine and rearing movements) of the mice was recorded for the next 30 min as the number of disruptions made by them in the 16×16 photobeam grids surrounding their testing chambers.

[4] = tested on: Swiss Webster mice; assay: Methamphetamine-induced dopamine depletions; assay type: in vivo, mouse; conditions: methamphetamine 5 mg/kg x4 at 2 hr intervals, striatal dopamine one week later
Method: Male, Swiss Webster mice were injected (i.p.) with saline or compound (0-20 mg/kg), followed 15 min later with either saline (-METH) or methamphetamine (5 mg/kg) at 2 hr intervals, a total of four times. Striatal dopamine levels were measured one week later.

[5] = tested on: Swiss Webster mice; assay: Cocaine-induced locomotor activity; assay type: in vivo, mouse; conditions: i.p. pretreatment 15 min before cocaine 20 mg/kg i.p.
Method: Male, Swiss Webster mice were acclimated to the treatment room and then to the chambers of the automated activity monitoring system (San Diego Instruments, San Diego, Calif.). […] The total locomotor activity (ambulatory, fine and rearing movements) of the mice was recorded for the next 30 min as the number of disruptions made by them in the 16×16 photobeam grid of their testing chamber.

[6] = tested on: Swiss Webster mice; assay: Cocaine-induced convulsions; assay type: in vivo, mouse; conditions: i.p. pretreatment 15 min before cocaine 70 mg/kg i.p.
[7] = target: NMDA receptors; assay: Non-σ competition binding, NMDA receptors ([3H]TCP); conditions: rat brain homogenates
Method: as §1

[8] = tested on: Swiss Webster mice; assay: Development of cocaine-induced sensitization; assay type: in vivo, mouse; conditions: pretreatment Days 1-5, cocaine 10 mg/kg i.p., test Day 15
Method: as §2, with “of” for “surrounding”, “chamber on each of the five days. A 10 day drug-free period followed. On Day 15, all of the mice were pre-administered (i.p.) saline followed by cocaine (10 mg/kg, i.p.), and locomotor activity quantified for the next 30 min.” for “chambers.”

[9] = target: dopamine D2 receptors (Rattus norvegicus (Rat), UniProt P61169); assay: Non-σ competition binding, dopamine D2 receptors ([3H](−)-sulpiride); conditions: rat brain homogenates
Chain of dopamine D2 receptors (P61169 whole entry): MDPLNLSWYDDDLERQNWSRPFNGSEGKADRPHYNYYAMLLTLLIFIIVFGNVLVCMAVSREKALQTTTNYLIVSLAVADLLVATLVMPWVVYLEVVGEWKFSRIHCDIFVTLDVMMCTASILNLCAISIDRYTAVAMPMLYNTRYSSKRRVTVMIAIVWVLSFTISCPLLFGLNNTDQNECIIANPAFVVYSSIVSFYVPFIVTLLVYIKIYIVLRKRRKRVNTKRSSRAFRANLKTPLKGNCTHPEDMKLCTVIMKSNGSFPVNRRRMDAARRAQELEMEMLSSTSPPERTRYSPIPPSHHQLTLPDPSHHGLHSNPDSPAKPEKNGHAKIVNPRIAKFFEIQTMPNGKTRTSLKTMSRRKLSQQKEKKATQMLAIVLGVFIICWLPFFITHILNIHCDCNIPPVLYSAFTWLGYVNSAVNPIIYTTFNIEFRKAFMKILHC
Method: as §1

[10] = target: 5-HT2 receptors (Rattus norvegicus (Rat), UniProt P14842); assay: Non-σ competition binding, 5-HT2 receptors ([3H]ketanserin); conditions: rat brain homogenates
Chain of 5-HT2 receptors (P14842 whole entry): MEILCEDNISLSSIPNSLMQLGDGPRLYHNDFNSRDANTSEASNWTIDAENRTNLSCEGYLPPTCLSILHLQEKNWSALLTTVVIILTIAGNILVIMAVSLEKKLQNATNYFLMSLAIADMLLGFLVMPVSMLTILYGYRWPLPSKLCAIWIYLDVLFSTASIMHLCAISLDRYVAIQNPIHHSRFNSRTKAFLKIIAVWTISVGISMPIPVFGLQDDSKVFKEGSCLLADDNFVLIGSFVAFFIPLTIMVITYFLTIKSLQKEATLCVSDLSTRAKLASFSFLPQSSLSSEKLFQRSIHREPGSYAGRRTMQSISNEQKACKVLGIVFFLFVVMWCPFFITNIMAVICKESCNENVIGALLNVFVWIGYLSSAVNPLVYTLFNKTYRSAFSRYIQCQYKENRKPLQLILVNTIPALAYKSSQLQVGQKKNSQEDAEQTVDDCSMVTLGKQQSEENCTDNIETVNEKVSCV
Method: as §1

[11] = tested on: rat brain; conditions: literature; cited from earlier work
[12] = target: σ-1 receptor (Homo sapiens (Human), UniProt Q99720); conditions: literature, cited from earlier work
Chain of σ-1 receptor (Q99720 whole entry, species assumed): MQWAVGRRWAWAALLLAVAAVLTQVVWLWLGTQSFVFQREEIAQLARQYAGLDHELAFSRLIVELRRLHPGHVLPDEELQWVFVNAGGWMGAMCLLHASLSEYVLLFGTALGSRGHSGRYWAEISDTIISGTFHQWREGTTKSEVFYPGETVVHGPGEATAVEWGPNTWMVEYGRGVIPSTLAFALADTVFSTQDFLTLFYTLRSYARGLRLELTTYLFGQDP

[13] = tested on: mouse brain; conditions: mice, literature; cited from earlier work
[14] = target: σ-1 receptor (CHO cells transfected with σ-1 receptor cDNA) (Homo sapiens (Human), UniProt Q99720); assay: Cell uptake studies in transfected CHO cells; conditions: 120 min
Chain of σ-1 receptor (CHO cells transfected with σ-1 receptor cDNA) (Q99720 whole entry): as the sequence (Q99720 whole entry, species assumed) above
Method: Control CHO cells (transfected with a vector not containing the σ-1 receptor gene—to serve as a negative control) and CHO cells transfected with a vector containing σ-1 receptor cDNA (to serve as a positive control for σ-1 receptor expression in cells) were used for the uptake assays. […] The incubated cells were subsequently washed, lysed and counted for radioactivity. All collected data were normalized for amount of protein present in each well.
Cells CHO cells were grown in Ham's F-12 medium. For uptake studies CHO cells were transfected using Lipofectamine 2000 (Invitrogen, Carlsbad, Calif., USA) and either pcDNA (empty vector, negative control) or σ-1 receptor gene (OPRS1, accession number NM_005866.2, OriGene, Rockville, Md., USA) following manufacturers directions. […] Twenty-four hours later, CHO cells were transfected with either 0.8 μg pcDNA (empty vector, control), or 0.8 μg sigma-1 DNA. […] A portion of each lysate (250 μL) was transferred to a glass tube and activity was measured with a Cobra II γ counter (Packard-Perkin Elmer, Waltham, Mass., USA). Protein content from each well was measured by Bradford assay. The same protocol was followed for (+)-[^3H]pentazocine, except the activity was measured with a liquid scintillation counter (Beckman Coulter LS 6500, Brea, Calif., USA).

[15] = target: σ-2 receptor (Rattus norvegicus (Rat), UniProt Q5U3Y7); assay: σ-2 receptor binding in rat brain homogenates ([3H]DTG plus (+)-pentazocine); conditions: read-out: Ki (nm) σ2; compound listing tables
Chain of σ-2 receptor (Q5U3Y7 whole entry): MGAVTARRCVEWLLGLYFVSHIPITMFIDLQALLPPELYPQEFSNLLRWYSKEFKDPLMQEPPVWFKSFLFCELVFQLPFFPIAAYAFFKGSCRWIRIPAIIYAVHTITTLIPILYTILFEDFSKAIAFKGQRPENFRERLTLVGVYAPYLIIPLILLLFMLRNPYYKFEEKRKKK
Method: Compounds were evaluated for σ-1 and σ-2 binding in rat brain homogenates. […] The assays were terminated with ice-cold 10 mM Tris-HCl, pH 8.0, followed by two washes through glass fiber filters that were pre-soaked for at least 30 min in 0.5% polyethyleneimine.

[16] = Metabolic stability of AZ_66 in rat liver microsomes; assay type: in vitro ADME
Method: Metabolic stability of AZ_66 (1 μM) was performed in Ammonium acetate buffer (50 mM, pH 7.4) with Rat liver microsomes (0.5 mg) at 37° C. in 0.5 ml of incubation mixture. The incubation mixture composed of Ammonium acetate buffer (50 mM, pH 7.4), Magnesium chloride (3 mM), NADPH regenerating system consisting of NADP (1 mM), glucose-6-phosphate (5 mM), and glucose-6-phosphate dehydrogenase (1 Unit/mL). The Substrate and microsomes were pre incubated at 37° C. for 5 min before starting the reaction. The reactions were started by the addition of regenerating system and carried out at 37° C. in a shaking water bath for 60 min. The incubations were stopped by adding equal volume of ice cold acetonitrile at predetermined time points (0, 5, 15, 30, 60 min). The samples were centrifuged for 10 min at 4° C. and the supernatant was injected in to UPLC/MS/MS. Control incubation without NADPH was also performed and these served as 100% value. All microsomal incubations were conducted using the same lot of microsomes.
In vitro half-life and CLint: The percent of the parent compound remaining is plotted versus time. The slope of the line gives the rate constant k for the disappearance of parent compound, from which an in vitro t1/2 can be calculated. CLint can be calculated using the following formula
[formula] [V] is the incubation volume in μl and [P] is the amount of microsomal protein in the incubation.

[17] = assay type: in vitro ADME
[18] = tested on: 59 targets (non-sigma); assay: NovaScreen and in-house profile of 59 targets; assay type: binding; conditions: nine targets
Method: Competition binding assays were performed as previously described. Briefly, radioligands were used to tag the targeted sites under standard conditions.

[19] = Partition coefficient (Log P / Log D), shake-flask n-octanol and water/PBS; assay type: physicochemical; conditions: read-out: experimental Log P O/W±SD
Method: Using the Shake-flask method, 47 n-Octanol and water/PBS, pH 7.4 (equal quantity) were added to a glass vial (25 ml). […] Water/PBS, pH 7.4 phase was brought into a vessel together with a Teflon-coated magnetic stirring bar. The n-octanol phase containing the known quantity of test substance was poured very carefully on top of the aqueous phase in order to avoid emulsion formation as far as possible. […] The contents were allowed to separate on standing and then centrifuged. An aliquot of aqueous layer was taken and diluted (1000 times) for quantitative analysis by UPLC/MS/MS.

[20] = In vitro half-life in mouse liver microsomes; assay type: in vitro ADME
Method: The reaction was initiated by adding cofactors and quenched at designated time points (0, 5, 10, 15, 30, 45, 60 min) by addition of an equal volume of ice-cold acetonitrile (ACN). […].
The basic incubation mixture consisted of 5 mM substrate, 1 mg/mL microsomal protein, 3 mM MgCl2, 1 mM NADP, 5 mM glucose-6-phosphate, 1 IU/mL glucose-6-phosphate dehydrogenase, 100 mM Tris HCl buffer (pH 7.4) in a final volume of 1 mL. The reaction was initiated by adding cofactors and quenched at designated time points (0, 5, 10, 15, 30, 45, 60 min) by addition of an equal volume of ice-cold ACN. The mixture was centrifuged at 3000 rpm for 10 min, and the supernatant was analysed by UPLC/MS/MS.

[21] = tested on: Swiss Webster mice; assay: In vivo cocaine studies with CM304 (cocaine-induced convulsions); conditions: 0.001-10 mg/kg i.p. 15 min before cocaine 70 mg/kg i.p., hydrochloride

SMILES: S=c1sc2ccccc2n1CCCCN1CCN(C2CCCCC2)CC1 [CM156]
- attenuation of expression of cocaine-induced sensitization [1]: significant attenuation; also recorded: attenuates the expression of cocaine-induced sensitization
- Ki [2]: > 10000 nM
- attenuation of methamphetamine-induced locomotor activity [3]: attenuated the locomotor stimulant effects of methamphetamine; also recorded: attenuates methamphetamine-induced locomotor activity
- attenuation of methamphetamine-induced dopamine depletions (neurotoxic effects) [4]: attenuated; also recorded: attenuates methamphetamine-induced dopamine depletions
- attenuation of cocaine-induced locomotor activity [5]: significant attenuation; also recorded: attenuates cocaine-induced locomotor activity
- attenuation of cocaine-induced convulsions [6]: significant attenuation; also recorded: attenuates the convulsive effects of cocaine

SMILES: CC(=O)c1ccc2c(c1)oc(=O)n2CCCCN1CCN(c2ccc(F)cc2)CC1.Cl.Cl [SN-79]
- attenuation of expression of cocaine-induced sensitization [1]: attenuates the expression of cocaine-induced sensitization
- Ki [2]: > 10000 nM
- Ki [7]: > 10000 nM
- attenuation of development of cocaine-induced sensitization [8]: significant attenuation; also recorded: attenuates the development of cocaine-induced sensitization
- Ki [9]: > 10000 nM
- Ki [10]: 320 ± 16 nM
- attenuation of cocaine-induced locomotor activity [5]: significant attenuation; also recorded: attenuates cocaine-induced locomotor activity
- attenuation of cocaine-induced convulsions [6]: significant attenuation; also recorded: attenuates the convulsive effects of cocaine

SMILES: N#Cc1ccc(OCC2CCN(CC[18F])CC2)cc1 [[^18F]SFE]
- reduction in peak uptake in rat brain over a 90 min period [11]: 40%

SMILES: CCCc1ccc2c(c1)sc(=O)n2CCN1CCCCC1 [SN56]
- Selectivity Ratio for the σ-1 receptor (reported) [12]: > 1000
- Ki ([12]; read-out: Ki at σ-1 receptor (reported)): 0.56 nM

SMILES: O=C(Cc1ccccc1F)NC1CCN(Cc2ccc([18F])cc2)CC1 [[^18F]FBFPA, N-[^18F]4′-fluorobenzylpiperidin-4yl-(2-fluorophenyl) acetamide, reference compound]
- affinity for σ-2 receptor/σ-1 receptor (reported) [12]: 44

SMILES: [17F]CCC1OC2(CCN(Cc3ccccc3)CC2)c2ccccc21 (stereo not drawn) [[^18F]fluspidine]
- brain level at 60 minutes post injection relative to maximum (reported) [13]: 81 % of its maximum

SMILES: O=c1sc2cc(CCC[18F])ccc2n1CCN1CCCCCC1 [[^18F]FTC-146, 6-(3-fluoropropyl)-3-(2-(azapan-1-yl)ethyl)benzo[d]thiazol-2(3H)-one]
- uptake in cells transfected with σ-1 receptor cDNA versus control CHO cells [14]: 4 fold

SMILES: CC(CCCn1c(=O)sc2cc(F)ccc21)N1CCN(C2CCCCC2)CC1 (stereo not drawn) [AZ-66]
- Ki [15]: 1.76 ± 0.34 nM
- CLint whole liver ([16]; AZ_66 1 μM, rat): 0.002434 L/min
- half-life at 1 μM ([16]; pH 7.4, rat liver microsomes, 1 μM, 0-30 min linear part, read-out: estimated t1/2 for disappearance): 116 ± 15 min
- added substrate metabolized by 60 min ([16]; rat liver microsomes, 60 min): about 25%
- microsomal CLint at 1 μM ([16]; rat, rat liver microsomes, pH 7.4, read-out: estimated CLint from microsomes): 6 µL/min/mg

SMILES: COc1cc(CCN2CCN(CCCc3ccccc3)CC2)ccc1OC[18F] [[^18F]FM-SA4503]
- time of maximum uptake in the brain [13]: 30 minutes post injection

SMILES: Cl.O=c1sc2cc(CCCF)ccc2n1CCN1CCCCCC1 [CM304, 3-(2-(azepan-1-yl)ethyl)-6-(3-fluoropropyl)benzo[d]thiazol-2(3H)-one hydrochloride]
- clearance in rat liver microsomes [17]: 0.18 mL/min/g
- displacement of the radioligand at 100 nM ([18]; 100 nM screening concentration): < 20%
- displacement of the radioligand at 10,000 nM ([18]; 10,000 nM screening concentration): > 50%
- logP [19]: -0.15 ± 0.05
- clearance in mouse liver microsomes [20]: 0.55 mL/min/g
- half-life at 5 mM ([20]; mouse, microsomes, pH 7.4): 4.2 min
- attenuation of cocaine-induced convulsions by CM304 [21]: significantly attenuated cocaine-induced convulsions at all doses examined
